Data as given in patent US20050101595A1, “N-containing cycloalkyl-substituted amino-thiazole derivatives and pharmaceutical compositions for inhibiting cell proliferation and methods for their use” (PFIZER INC., priority 2003, published 2005).
Counter-ions that a name gives are not always drawn.

Columns and labels:
CDK2/Cyclin A = CDK2/Cyclin A (Homo sapiens, UniProt P24941); assay: Inhibition of CDK2/Cyclin A Retinoblastoma Kinase Activity; format: biochemical; details: for inhibition at 0.05 µM: read-out: % inhibition of CDK2 (@ 0.05 μM), compound at 0.05 μM; for Ki: apparent Ki, CDK2/proteolyzed cyclin A, Rb fragment substrate, 25 μM ATP
Method in brief: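 CDK2 (10 or 19 nM), insect-cell expressed, gel-filtration purified with truncated cyclin A; Rb fragment substrate; 25 μM ATP; 10 mM HEPES pH 7.4, 10 mM MgCl2; 30° C, 60 or 75 min; EDTA stop; phosphocellulose/nitrocellulose capture, phosphorimager. % inhibition vs DMSO control, no-enzyme background subtracted.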

HCT-116 cell line = assay: Inhibition of cell growth, tetrazolium salt (MTT) assay; format: cell-based; details: MTT; for inhibition at 0.175 µM / IC50: Homo sapiens; for inhibition at 0.175 µM: HCT-116, HCT-116 cells; for IC50: HCT-116, 120 h, first HCT-116 column (c4), three to five days, read-out: HCT-116 IC50
Method in brief: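 First, cells were seeded in McCoy's 5A medium and held 4 h. Next, inhibitor concentrations in 0.5% (v/v) DMSO were applied for three to five days at 37° C, 5% CO2. Finally, after 4 h with 0.2 mg/mL MTT and medium removal, solubilized formazan was measured at 540 nm.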

SMILES | inhibition at 0.05 µM (CDK2/Cyclin A) [%] | inhibition at 0.175 µM (HCT-116 cell line; compound at 0.175 uM) [%] | other results
Nc1nc(NC2CCN(S(=O)(=O)CCCN3CCCC(CO)C3)CC2)sc1C(=O)c1c(F)cccc1F (centres unmarked) [Example V36] | 50 | 8 | –
Nc1nc(NC2CCN(S(=O)(=O)CCCNCc3cccc(F)c3)CC2)sc1C(=O)c1c(F)cccc1F [Example V100] | 91 | 88 | –
C[C@@H](NCCC(=O)N1CCC(Nc2nc(N)c(C(=O)c3c(F)cccc3F)s2)CC1)c1ccccc1 [Example U1, Trifluoroacetic Acid Salt] | – | – | Ki (CDK2/Cyclin A): 20.7 nM; IC50 (HCT-116 cell line): 910 nM
Nc1nc(NC2CCN(S(=O)(=O)CCCN(CCO)CCO)CC2)sc1C(=O)c1c(F)cccc1F [Example V78] | 80 | 7 | –
CC(=O)N1CCN(CCCS(=O)(=O)N2CCC(Nc3nc(N)c(C(=O)c4c(F)cccc4F)s3)CC2)CC1 [Example V29] | 81 | 0 | –
Nc1nc(NC2CCN(S(=O)(=O)CCCNc3ccccn3)CC2)sc1C(=O)c1c(F)cccc1F [Example V2] | 85 | 6 | –
CC1(C)CCCN(CCCS(=O)(=O)N2CCC(Nc3nc(N)c(C(=O)c4c(F)cccc4F)s3)CC2)C1 [Example V46] | 77 | 71 | –
Nc1nc(NC2CCN(S(=O)(=O)CCCNc3ccc4ccccc4n3)CC2)sc1C(=O)c1c(F)cccc1F [Example V110] | 67 | 2 | –
CCc1ccc(C)cc1NCCCS(=O)(=O)N1CCC(Nc2nc(N)c(C(=O)c3c(F)cccc3F)s2)CC1 [Example V112] | 88 | 57 | –
C=C(C)CN(C)CCCS(=O)(=O)N1CCC(Nc2nc(N)c(C(=O)c3c(F)cccc3F)s2)CC1 [Example V177, (4-Amino-2-{[1-({3-[methyl(2-methyl-2-propen-1-yl)amino]propyl}sulfonyl)-4-piperidinyl]amino}-1,3-thiazol-5-yl)(2,6-difluorophenyl)methanone.] | – | – | Ki (CDK2/Cyclin A): 17 nM; IC50 (HCT-116 cell line): 90 nM
Nc1nc(NC2CCN(S(=O)(=O)CCCNC3CCCCCC3)CC2)sc1C(=O)c1c(F)cccc1F [Example V159] | 88 | 8 | –
Cc1cccc(CNCCCS(=O)(=O)N2CCC(Nc3nc(N)c(C(=O)c4c(F)cccc4F)s3)CC2)c1 [Example V79] | 93 | 76 | –
CN(CCCS(=O)(=O)N1CCC(Nc2nc(N)c(C(=O)c3c(F)cccc3F)s2)CC1)Cc1ccccc1 [Example V13] | 90 | 79 | –
Nc1nc(NC2CCN(S(=O)(=O)CCCN3CCOCC3)CC2)sc1C(=O)c1c(F)cccc1F [Example V88] | 77 | 17 | –
COC(=O)[C@@H]1CCCN1CCCS(=O)(=O)N1CCC(Nc2nc(N)c(C(=O)c3c(F)cccc3F)s2)CC1 [Example V139] | 79 | 0 | –
Cc1cc(NCCCS(=O)(=O)N2CCC(Nc3nc(N)c(C(=O)c4c(F)cccc4F)s3)CC2)no1 [Example V44] | 80 | 17 | –
Nc1nc(NC2CCN(S(=O)(=O)CCCNc3cc(O)c4ccccc4n3)CC2)sc1C(=O)c1c(F)cccc1F [Example V140] | 93 | 0 | –

SMILES | inhibition at 0.05 µM (CDK2/Cyclin A) [%] | inhibition at 0.175 µM (HCT-116 cell line; compound at 0.175 uM) [%] | other results
CN(CCCS(=O)(=O)N1CCC(Nc2nc(N)c(C(=O)c3c(F)cccc3F)s2)CC1)Cc1ccccc1 [Example V181, (4-Amino-2-{[1-({3-[benzyl(methyl)amino]propyl}sulfonyl)-4-piperidinyl]amino}-1,3-thiazol-5-yl)(2,6-difluorophenyl)methanone.] | – | – | Ki (CDK2/Cyclin A): 6.5 nM; IC50 (HCT-116 cell line): 60 nM
COCCN(C)CCCS(=O)(=O)N1CCC(Nc2nc(N)c(C(=O)c3c(F)cccc3F)s2)CC1 [Example V107] | 78 | 36 | –
Nc1nc(NC2CCN(S(=O)(=O)CCCN[C@@H]3CONC3=O)CC2)sc1C(=O)c1c(F)cccc1F [Example V21] | 86 | 10 | –
CCCN(CCO)CCCS(=O)(=O)N1CCC(Nc2nc(N)c(C(=O)c3c(F)cccc3F)s2)CC1 [Example V106] | 82 | 11 | –
Cc1cccc(CNCCCS(=O)(=O)N2CCC(Nc3nc(N)c(C(=O)c4c(F)cccc4F)s3)CC2)c1 [Example V180, (4-Amino-2-{[1-({3-[(3-methylbenzyl)amino]propyl}sulfonyl)-4-piperidinyl]amino}-1,3-thiazol-5-yl)(2,6-difluorophenyl)methanone.] | – | – | Ki (CDK2/Cyclin A): 4 nM; IC50 (HCT-116 cell line): 90 nM
Cc1cccc(NCCCS(=O)(=O)N2CCC(Nc3nc(N)c(C(=O)c4c(F)cccc4F)s3)CC2)n1 [Example V62] | 91 | 0 | –
CN(CCCS(=O)(=O)N1CCC(Nc2nc(N)c(C(=O)c3c(F)cccc3F)s2)CC1)CC(O)CO (centres unmarked) [Example V124] | 80 | 9 | –
Nc1nc(NC2CCN(S(=O)(=O)CCCNCc3ccccc3F)CC2)sc1C(=O)c1c(F)cccc1F [Example V26] | 92 | 76 | –
Nc1nc(NC2CCN(S(=O)(=O)CCCN3CCC(CO)CC3)CC2)sc1C(=O)c1c(F)cccc1F [Example V133] | 71 | 0 | –
Nc1nc(NC2CCN(S(=O)(=O)CCCN3CCCCCC3)CC2)sc1C(=O)c1c(F)cccc1F [Example V37] | – | – | % inhibition of CDK2 (@ 0.05 μM) (CDK2/Cyclin A; compound at 0.05 μM, 0.05 µM): 85%; % inhibition HCT-116 in MTT @ 0.175 uM (HCT-116 cell line; HCT-116 cells, compound at 0.175 uM, 0.175 µM): 65%
Nc1nc(NC2CCN(S(=O)(=O)CCCN3CCCCC3)CC2)sc1C(=O)c1c(F)cccc1F [Example V55] | 84 | 56 | –
CN(CCCS(=O)(=O)N1CCC(Nc2nc(N)c(C(=O)c3c(F)cccc3F)s2)CC1)Cc1ccco1 [Example V82] | 88 | 60 | –
Nc1ccc(CNCCCS(=O)(=O)N2CCC(Nc3nc(N)c(C(=O)c4c(F)cccc4F)s3)CC2)cc1 [Example V47] | 85 | 13 | –
C=CCN1CCN(CCCS(=O)(=O)N2CCC(Nc3nc(N)c(C(=O)c4c(F)cccc4F)s3)CC2)CC1 [Example V74] | 82 | 44 | –
CCc1cccc(NCCCS(=O)(=O)N2CCC(Nc3nc(N)c(C(=O)c4c(F)cccc4F)s3)CC2)n1 [Example V113] | 79 | 19 | –
Nc1nc(NC2CCN(S(=O)(=O)CCCN3CCSC3)CC2)sc1C(=O)c1c(F)cccc1F [Example V101] | 80 | 22 | –

Further lines, with some results ahead:

inhibition at 0.05 µM (CDK2/Cyclin A) [%] | SMILES | inhibition at 0.175 µM (HCT-116 cell line; compound at 0.175 uM) [%] | other results
85 | CCCCCNCCCS(=O)(=O)N1CCC(Nc2nc(N)c(C(=O)c3c(F)cccc3F)s2)CC1 [Example V89] | 42 | –
75 | CN(C)CCNCCCS(=O)(=O)N1CCC(Nc2nc(N)c(C(=O)c3c(F)cccc3F)s2)CC1 [Example V54] | 0 | –
81 | CC1=NNC(=O)C1CNCCCS(=O)(=O)N1CCC(Nc2nc(N)c(C(=O)c3c(F)cccc3F)s2)CC1 (centres unmarked) [Example V172] | 11 | –
59 | CC(=O)NCCNCCCS(=O)(=O)N1CCC(Nc2nc(N)c(C(=O)c3c(F)cccc3F)s2)CC1 [Example V19] | 13 | –
81 | Nc1nc(NC2CCN(S(=O)(=O)CCCNCC3CCCO3)CC2)sc1C(=O)c1c(F)cccc1F (centres unmarked) [Example V20] | 9 | –
80 | CCOC(=O)CCNCCCS(=O)(=O)N1CCC(Nc2nc(N)c(C(=O)c3c(F)cccc3F)s2)CC1 [Example V132] | 20 | –
91 | Nc1nc(NC2CCN(S(=O)(=O)CCCNCCC3=CCCCC3)CC2)sc1C(=O)c1c(F)cccc1F [Example V49] | 38 | –
82 | CCCCNCCCS(=O)(=O)N1CCC(Nc2nc(N)c(C(=O)c3c(F)cccc3F)s2)CC1 [Example V85] | 29 | –
75 | CCN(CC)CCCNCCCS(=O)(=O)N1CCC(Nc2nc(N)c(C(=O)c3c(F)cccc3F)s2)CC1 [Example V14] | 18 | –
86 | Nc1nc(NC2CCN(S(=O)(=O)CCCNCCc3cccnc3)CC2)sc1C(=O)c1c(F)cccc1F [Example V114] | 17 | –
78 | Nc1nc(NC2CCN(S(=O)(=O)CCCNC3CCC3)CC2)sc1C(=O)c1c(F)cccc1F [Example V63] | 13 | –
76 | Cc1ccc(CNCCCS(=O)(=O)N2CCC(Nc3nc(N)c(C(=O)c4c(F)cccc4F)s3)CC2)o1 [Example V123] | 5 | –
78 | Cc1nnc(CCNCCCS(=O)(=O)N2CCC(Nc3nc(N)c(C(=O)c4c(F)cccc4F)s3)CC2)o1 [Example V175] | 5 | –
81 | COC(=O)CNCCCS(=O)(=O)N1CCC(Nc2nc(N)c(C(=O)c3c(F)cccc3F)s2)CC1 [Example V50] | 0 | –
81 | CCOCCNCCCS(=O)(=O)N1CCC(Nc2nc(N)c(C(=O)c3c(F)cccc3F)s2)CC1 [Example V98] | 21 | –
84 | Nc1nc(NC2CCN(S(=O)(=O)CCCNCCCn3ccnc3)CC2)sc1C(=O)c1c(F)cccc1F [Example V3] | 17 | –
